In one test the target is T1, βTRP (Homo sapiens, UniProt Q9NZQ8).
T1 construct: expressed in transfected cells; control line A1-5
T1 sequence (Q9NZQ8 1-1165): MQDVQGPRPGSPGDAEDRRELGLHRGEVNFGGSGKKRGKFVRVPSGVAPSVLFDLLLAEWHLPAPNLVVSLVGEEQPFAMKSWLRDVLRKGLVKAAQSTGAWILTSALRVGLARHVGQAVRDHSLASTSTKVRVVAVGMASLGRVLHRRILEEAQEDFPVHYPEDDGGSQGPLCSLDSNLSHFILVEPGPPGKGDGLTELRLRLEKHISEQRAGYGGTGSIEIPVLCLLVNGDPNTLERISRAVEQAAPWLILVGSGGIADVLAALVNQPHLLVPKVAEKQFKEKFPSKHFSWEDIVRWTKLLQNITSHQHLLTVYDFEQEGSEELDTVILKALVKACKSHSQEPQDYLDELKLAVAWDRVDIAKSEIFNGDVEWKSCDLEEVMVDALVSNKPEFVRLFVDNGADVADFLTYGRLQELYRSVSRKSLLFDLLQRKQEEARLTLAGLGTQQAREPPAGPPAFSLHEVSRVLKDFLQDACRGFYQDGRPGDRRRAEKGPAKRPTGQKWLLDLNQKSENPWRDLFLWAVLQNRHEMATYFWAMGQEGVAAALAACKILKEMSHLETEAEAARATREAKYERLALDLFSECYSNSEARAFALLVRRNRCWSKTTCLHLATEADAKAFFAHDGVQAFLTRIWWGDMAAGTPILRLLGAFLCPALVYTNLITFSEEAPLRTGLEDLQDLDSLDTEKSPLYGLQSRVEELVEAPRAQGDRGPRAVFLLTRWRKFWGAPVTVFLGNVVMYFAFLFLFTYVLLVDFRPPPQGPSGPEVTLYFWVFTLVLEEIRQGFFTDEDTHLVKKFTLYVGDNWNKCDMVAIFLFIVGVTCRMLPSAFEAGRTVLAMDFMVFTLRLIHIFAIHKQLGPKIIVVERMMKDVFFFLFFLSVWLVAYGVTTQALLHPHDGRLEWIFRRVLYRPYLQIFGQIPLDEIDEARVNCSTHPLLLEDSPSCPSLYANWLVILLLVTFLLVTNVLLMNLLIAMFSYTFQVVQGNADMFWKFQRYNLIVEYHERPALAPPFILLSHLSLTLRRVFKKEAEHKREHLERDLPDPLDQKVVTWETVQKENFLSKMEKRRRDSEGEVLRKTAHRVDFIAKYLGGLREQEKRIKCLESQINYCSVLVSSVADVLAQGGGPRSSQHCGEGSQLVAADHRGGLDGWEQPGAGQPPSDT
Description: Membrane potential (MP) assay in βTRP-CHO cells, FLEXStation with Membrane Potential Dye. The format is cell-based. The following applies: for depolarization / MP response in βTRP-CHO cells: βTRP-CHO cell line (A2-18); for EC50: βTRP-CHO cells, membrane potential, read-out: estimated EC50 of depolarization. As for the experimental part:
(§1) Control and βTRP-CHO cells were plated in 96-well plates 2-d before the assay. [Ca^2+]i and membrane potential (MP) responses to ATP (30 μM added at 20 sec) were measured with FLEXStation® and correspondent dyes from Molecular Devices (Sunnyvale, Calif.).
(§2) The following protocol is optimized for the measurement of membrane potential (MP) in 96-well format using Molecular Devices' Membrane Potential Dye (Cat #R-8034) on the FLEXStation (Molecular Devices). It is expected to be applicable or adaptable to the 384-well format assay with the FLIPR^384 system.
A CHO-K1 based stable cell line expressing βTRP (designated “Line A2-18” herein) is used for βTRP high throughput screening according to the follow protocol: • 1. Seed A2–18 βTrp-CHO cell and the control line (A1-5) to 96-well plates. • 2. Grow the cells for 24–48 h in DMEM medium to 85–95% confluency. • 3. Prepare following reagents immediately before the assay: • i. Assay buffer: dilute Component B of the FLIPR® assay kit and adjust pH to 7.4 with 1 N NaOH. No probenecid was needed. • ii. MP dye: suspend a vial of Component A of the FLIPR® assay kit with 10 ml of the assay buffer. • iii. Compound solutions: dilute DMSO stocks of the testing compounds to a 5× solution with the assay buffer. Raise Ca^2+ concentration in the compound solutions to 12.5 mM with 1 M CaCl2. • 4. Carefully remove the culture medium from all wells. • 5. Add 50 μl assay buffer and 50 μl MP dye. • 6. Incubate the plates at 37° C. for 30–60 minutes. • 7. Set the FLEXStation to MP assay mode and to 37° C. • 8. Transfer the cell plate and compound plate to FLEXStation. • 9. Record baseline for 18 sec (Ex 530, Em560). • 10. Add the 5× compound solutions to the cells and read another 100 sec. • 11. Save and analyze data. Reagent List • 1. Assay buffer: Hank's Balanced Salt Solution (HBSS) with 20 mM Hepes, pH 7.4 • 2. MP dye: Molecular Devices Corporation, Cat#8034 (for FLIPR) • 3. Positive control: ATP 10–100 μM (a purinergic receptor agonist) Calcimycin (A23187) 5–10 μM (a calcium ionophore) • 4. Antagonist control: • i. 2-APB 75 μM (from Tocris, TRP channel and IP3 receptor blocker); • ii. U73122 10 μM (from Sigma Chemicals, PLC inhibitor). Other Experimental Conditions • 1. The Cells: • iii. Maintenance: DMEM with 10% FCS and 200 μg/ml G418; Passaged 1–2 time/week with trypsin-EDTA. • iv. Confluency: 85–95% by the time of assay. • v. Plating: Regular or pre-coated plates; 24–48 h before assay. • vi. Passage: up to the 10th passage.

Another test relates to control (A1-5) CHO cells. Description: Membrane potential (MP) assay in control CHO cells (A1-5). The format is cell-based, Chinese hamster. The following applies: control CHO line (A1-5). Here is the method: as §1, §2
A CHO-K1 based stable cell line expressing βTRP (designated “Line A2-18” herein) is used for βTRP high throughput screening according to the follow protocol: • 1. Seed A2–18 βTrp-CHO cell and the control line (A1-5) to 96-well plates. • 2. Grow the cells for 24–48 h in DMEM medium to 85–95% confluency. • 3. Prepare following reagents immediately before the assay: • i. Assay buffer: dilute Component B of the FLIPR® assay kit and adjust pH to 7.4 with 1 N NaOH. No probenecid was needed. • ii. MP dye: suspend a vial of Component A of the FLIPR® assay kit with 10 ml of the assay buffer. • iii. Compound solutions: dilute DMSO stocks of the testing compounds to a 5× solution with the assay buffer. Raise Ca^2+ concentration in the compound solutions to 12.5 mM with 1 M CaCl2. • 4. Carefully remove the culture medium from all wells. • 5. Add 50 μl assay buffer and 50 μl MP dye. • 6. Incubate the plates at 37° C. for 30–60 minutes. • 7. Set the FLEXStation to MP assay mode and to 37° C. • 8. Transfer the cell plate and compound plate to FLEXStation. • 9. Record baseline for 18 sec (Ex 530, Em560). • 10. Add the 5× compound solutions to the cells and read another 100 sec. • 11. Save and analyze data. Reagent List • 1. Assay buffer: Hank's Balanced Salt Solution (HBSS) with 20 mM Hepes, pH 7.4 • 2. MP dye: Molecular Devices Corporation, Cat#8034 (for FLIPR) • 3. Positive control: ATP 10–100 μM (a purinergic receptor agonist) Calcimycin (A23187) 5–10 μM (a calcium ionophore) • 4. Antagonist control: • i. […]

Entries after “also recorded” stand apart in the source; their conditions may differ.

For the molecule `NCCOB(c1ccccc1)c1ccccc1` [2-APB], the “suppression of MP response to ATP” value at βTRP (inhibitor added at the same time as ATP) is listed as “over 50%”. Also, the “suppression of MP response to calcimycin” value at βTRP (inhibitor added at the same time as calcimycin) is “over 50%”.
What is called EC50 is the midpoint of the concentration-response curve. For the molecule `Nc1ncnc2c1ncn2[C@@H]1O[C@H](COP(=O)(O)OP(=O)(O)OP(=O)(O)O)[C@@H](O)[C@H]1O` [ATP], on βTRP, the “depolarization / MP response in βTRP-CHO cells” value is “present only in βTRP cells; also recorded: dose-dependently induced depolarization” and the EC50 is approximately 11 µM. For the same molecule, in the test on control (A1-5) CHO cells, the “depolarization / MP response in control cells” value is “No effect”.
On to `CCCCCCC[N+](CC)(CC)CCCCc1ccc(Cl)cc1` [Clofilium], for which the “depolarization / MP response in βTRP-CHO cells” value at βTRP is “triggered depolarization”. In addition, the “depolarization / MP response in control cells” value in the test on control (A1-5) CHO cells is reported as “triggered depolarization”.
Regarding `C=CC[C@H](C)[C@H](C)C[C@@H](O)[C@H](O)[C@@H]1CC[C@@]2(C)O[C@@]3(C)C[C@@]4(C)O[C@H]5/C=C\C[C@H]6O[C@H]7C[C@H]8O[C@H]9C[C@@]%10(C)O[C@@](C)([C@@H]%11CC[C@H]%12O[C@@]%13(C)C[C@H]%14O[C@@]%15(C)C[C@H]%16O[C@@]%17(C)C[C@@H](O)[C@H]([C@@H]%18O[C@H]%19[C@H](O)[C@@H](O)[C@H](C[C@H](O)C[C@@H](O)[C@@H]%20O[C@H]%21[C@H](O)[C@@H](O)[C@H]([C@@H]%22O[C@@H]%23[C@H](O)[C@H]%24O[C@H]%25C[C@H]%26O[C@@H](C[C@H](O)[C@@H](O)[C@H]%27O[C@H]%28[C@H](O)[C@H]%29O[C@H]%30C[C@H]%31O[C@H]%32[C@@H](O)[C@@H](O)[C@H]([C@H](C)[C@H](O)[C@H](C)CC[C@H](OS(=O)(=O)O)[C@H](O)[C@H](C)C[C@@H](O)C(=C)/C(C)=C/CO)O[C@@H]%32[C@H](O)C[C@]%31(C)O[C@@H]%30C[C@]%29(C)O[C@@H]%28C[C@H]%27O)[C@H](OS(=O)(=O)O)[C@H](O)[C@@H]%26O[C@@H]%25C[C@@H]%24O[C@H]%23[C@H](O)[C@H]%22O)O[C@H]%21C[C@H]%20O)O[C@H]%19C[C@H]%18O)O[C@@H]%17[C@H](O)[C@]%16(C)O[C@@H]%15CC[C@]%14(C)O[C@@H]%13C[C@@H]%12O%11)[C@H](O)C[C@@H]%10O[C@]9(C)CC[C@]8(C)O[C@]7(C)C[C@@H]6O[C@@H]5C[C@@H]4O[C@@H]3C[C@@H]2O1` [MTX, maitotoxin], the “MP response at low Ca2+” value on βTRP (1.26 mM Ca2+ in assay buffer) is “lack of action”. Also, the “[Ca2+]i or MP increase at raised Ca2+” value at βTRP (Ca2+ raised to 2.5–5 mM) is on record as “significantly enhanced”.
Regarding `COc1ccc2c(c1)CC[C@@H]1[C@@H]2CC[C@]2(C)[C@@H](NCCCCCCN3C(=O)C=CC3=O)CC[C@@H]12` [U73122], at βTRP (30 minute pre-incubation before ATP), the “effect on ATP-induced MP response after pre-incubation” value is given as “inhibited”.
With `CNc1ccc2oc(C[C@H]3O[C@@]4(CC[C@H]3C)O[C@H]([C@H](C)C(=O)c3ccc[nH]3)[C@H](C)C[C@H]4C)nc2c1C(=O)O` [calcimycin, Calcimycin], the “depolarization / MP response in βTRP-CHO cells” value at βTRP was “dose-dependently induced depolarization”; at βTRP (listed as A23187) it was “induced a βTRP cell specific depolarization”. In addition, at βTRP, the EC50 was approximately 0.8 µM. Also, the “depolarization / MP response in control cells” value with control (A1-5) CHO cells is “No effect”.

The values are drawn from patent US7087394B2, “Methods and compositions for treating and diagnosing diabetes and related diseases involving beta-TRP” (Metabolex, Inc., priority 2003, dated 2006).
